# Reference: paper PMC11480411, “Mucosal sugars delineate pyrazine vs pyrazinone autoinducer signaling in Klebsiella oxytoca” (Nature Communications, 2024)
# Legend:
# Assay in all cases: PRESTO-Tango GPCR screen
# Type in all cases: cell-based
# Conditions in all cases: 100 µM
# ADORA3 = target: T1, ADORA3 (Homo sapiens, UniProt P0DMS8)
# T1 construct: purchased PRESTO-Tango GPCR kit (Roth lab / Addgene)
# In short: (§1)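 HTLA cells (HEK293 stably expressing β-arrestin-TEV and tTA-luciferase) were transiently transfected with GPCR-Tango plasmids using polyethylenimine. After 16-24 h they were stimulated with compound at 100 μM final for 20 h. Luminescence was read with Bright-Glo and expressed as fold activation over PBS control.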
# ADRA1D = target: T2, ADRA1D (Homo sapiens, UniProt P25100)
# T2 construct: purchased PRESTO-Tango GPCR kit (Roth lab / Addgene)
# In short: as §1
# AVPR1A = target: T3, AVPR1A (Homo sapiens, UniProt P37288)
# T3 construct: purchased PRESTO-Tango GPCR kit (Roth lab / Addgene)
# In short: as §1
# CCR5 = target: T4, CCR5 (Homo sapiens, UniProt P51681)
# T4 construct: purchased PRESTO-Tango GPCR kit (Roth lab / Addgene)
# In short: as §1
# FFA3 = target: T5, FFA3 (Homo sapiens, UniProt O14843)
# T5 construct: purchased PRESTO-Tango GPCR kit (Roth lab / Addgene)
# In short: as §1
# GAL2 = target: T6, GAL2 (Homo sapiens, UniProt O43603)
# T6 construct: purchased PRESTO-Tango GPCR kit (Roth lab / Addgene)
# In short: as §1
# GAL3 = target: T7, GAL3 (Homo sapiens, UniProt O60755)
# T7 construct: purchased PRESTO-Tango GPCR kit (Roth lab / Addgene)
# In short: as §1
# GCGR = target: T8, GCGR (Homo sapiens, UniProt P47871)
# T8 construct: purchased PRESTO-Tango GPCR kit (Roth lab / Addgene)
# In short: as §1
# GPR1 = target: T9, GPR1 (Homo sapiens, UniProt P46091)
# T9 construct: purchased PRESTO-Tango GPCR kit (Roth lab / Addgene)
# In short: as §1
# GPR101 = target: T10, GPR101 (Homo sapiens, UniProt Q96P66)
# T10 construct: purchased PRESTO-Tango GPCR kit (Roth lab / Addgene)
# In short: as §1
# GPR116 = target: T11, GPR116 (Homo sapiens, UniProt Q8IZF2)
# T11 construct: purchased PRESTO-Tango GPCR kit (Roth lab / Addgene)
# In short: as §1
# GPR12 = target: T12, GPR12 (Homo sapiens, UniProt P47775)
# T12 construct: purchased PRESTO-Tango GPCR kit (Roth lab / Addgene)
# In short: as §1
# GPR149 = target: T13, GPR149 (Homo sapiens, UniProt Q86SP6)
# T13 construct: purchased PRESTO-Tango GPCR kit (Roth lab / Addgene)
# In short: as §1
# GPR20 = target: T14, GPR20 (Homo sapiens, UniProt Q99678)
# T14 construct: purchased PRESTO-Tango GPCR kit (Roth lab / Addgene)
# In short: as §1
# GPR25 = target: T15, GPR25 (Homo sapiens, UniProt O00155)
# T15 construct: purchased PRESTO-Tango GPCR kit (Roth lab / Addgene)
# In short: as §1
# GPR32 = target: T16, GPR32 (Homo sapiens, UniProt O75388)
# T16 construct: purchased PRESTO-Tango GPCR kit (Roth lab / Addgene)
# In short: as §1
# GPR39 = target: T17, GPR39 (Homo sapiens, UniProt O43194)
# T17 construct: purchased PRESTO-Tango GPCR kit (Roth lab / Addgene)
# In short: as §1
# GPR56 = target: T18, GPR56 (Homo sapiens, UniProt Q9Y653)
# T18 construct: purchased PRESTO-Tango GPCR kit (Roth lab / Addgene)
# In short: as §1
# GPRC5C = target: T19, GPRC5C (Homo sapiens, UniProt Q9NQ84)
# T19 construct: purchased PRESTO-Tango GPCR kit (Roth lab / Addgene)
# In short: as §1
# GRM6 = target: T20, GRM6 (Homo sapiens, UniProt O15303)
# T20 construct: purchased PRESTO-Tango GPCR kit (Roth lab / Addgene)
# In short: as §1
# HTR1A = target: T21, HTR1A (Homo sapiens, UniProt P08908)
# T21 construct: purchased PRESTO-Tango GPCR kit (Roth lab / Addgene)
# In short: as §1
# HTR1B = target: T22, HTR1B (Homo sapiens, UniProt P28222)
# T22 construct: purchased PRESTO-Tango GPCR kit (Roth lab / Addgene)
# In short: as §1
# HTR1D = target: T23, HTR1D (Homo sapiens, UniProt P28221)
# T23 construct: purchased PRESTO-Tango GPCR kit (Roth lab / Addgene)
# In short: as §1
# HTR2C = target: T24, HTR2C (Homo sapiens, UniProt P28335)
# T24 construct: purchased PRESTO-Tango GPCR kit (Roth lab / Addgene)
# In short: as §1
# HTR7 = target: T25, HTR7 (Homo sapiens, UniProt P34969)
# T25 construct: purchased PRESTO-Tango GPCR kit (Roth lab / Addgene)
# In short: as §1
# MRGPRX1 = target: T26, MRGPRX1 (Homo sapiens, UniProt Q96LB2)
# T26 construct: purchased PRESTO-Tango GPCR kit (Roth lab / Addgene)
# In short: as §1
# MRGPRX4 = target: T27, MRGPRX4 (Homo sapiens, UniProt Q96LA9)
# T27 construct: purchased PRESTO-Tango GPCR kit (Roth lab / Addgene)
# In short: as §1
# NPBW2 = target: T28, NPBW2 (Homo sapiens, UniProt P48146)
# T28 construct: purchased PRESTO-Tango GPCR kit (Roth lab / Addgene)
# In short: as §1
# OXTR = target: T29, OXTR (Homo sapiens, UniProt P30559)
# T29 construct: purchased PRESTO-Tango GPCR kit (Roth lab / Addgene)
# In short: as §1
# P2RY11 = target: T30, P2RY11 (Homo sapiens, UniProt Q96G91)
# T30 construct: purchased PRESTO-Tango GPCR kit (Roth lab / Addgene)
# In short: as §1
# PK2 = target: T31, PK2 (Homo sapiens, UniProt Q8NFJ6)
# T31 construct: purchased PRESTO-Tango GPCR kit (Roth lab / Addgene)
# In short: as §1
# PTGER3 = target: T32, PTGER3 (Homo sapiens, UniProt P43115)
# T32 construct: purchased PRESTO-Tango GPCR kit (Roth lab / Addgene)
# In short: as §1
# PTH2R = target: T33, PTH2R (Homo sapiens, UniProt P49190)
# T33 construct: purchased PRESTO-Tango GPCR kit (Roth lab / Addgene)
# In short: as §1
# RXFP3 = target: T34, RXFP3 (Homo sapiens, UniProt Q9NSD7)
# T34 construct: purchased PRESTO-Tango GPCR kit (Roth lab / Addgene)
# In short: as §1
# S1PR1 = target: T35, S1PR1 (Homo sapiens, UniProt P21453)
# T35 construct: purchased PRESTO-Tango GPCR kit (Roth lab / Addgene)
# In short: as §1
# TA1 = target: T36, TA1 (Homo sapiens, UniProt Q96RJ0)
# T36 construct: purchased PRESTO-Tango GPCR kit (Roth lab / Addgene)
# In short: as §1
# T30 sequence (Q96G91 whole entry, one chain of several): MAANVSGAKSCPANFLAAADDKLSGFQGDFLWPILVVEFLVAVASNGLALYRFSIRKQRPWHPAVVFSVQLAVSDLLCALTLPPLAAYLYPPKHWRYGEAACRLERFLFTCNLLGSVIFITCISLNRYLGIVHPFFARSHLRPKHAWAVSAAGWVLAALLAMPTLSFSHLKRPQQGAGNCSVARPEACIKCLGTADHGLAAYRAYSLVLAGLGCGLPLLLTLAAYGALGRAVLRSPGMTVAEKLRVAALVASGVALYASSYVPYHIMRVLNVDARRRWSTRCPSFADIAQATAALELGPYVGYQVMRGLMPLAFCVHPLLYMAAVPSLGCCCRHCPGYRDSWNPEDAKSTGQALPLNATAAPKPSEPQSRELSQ
# T2 sequence (P25100 whole entry): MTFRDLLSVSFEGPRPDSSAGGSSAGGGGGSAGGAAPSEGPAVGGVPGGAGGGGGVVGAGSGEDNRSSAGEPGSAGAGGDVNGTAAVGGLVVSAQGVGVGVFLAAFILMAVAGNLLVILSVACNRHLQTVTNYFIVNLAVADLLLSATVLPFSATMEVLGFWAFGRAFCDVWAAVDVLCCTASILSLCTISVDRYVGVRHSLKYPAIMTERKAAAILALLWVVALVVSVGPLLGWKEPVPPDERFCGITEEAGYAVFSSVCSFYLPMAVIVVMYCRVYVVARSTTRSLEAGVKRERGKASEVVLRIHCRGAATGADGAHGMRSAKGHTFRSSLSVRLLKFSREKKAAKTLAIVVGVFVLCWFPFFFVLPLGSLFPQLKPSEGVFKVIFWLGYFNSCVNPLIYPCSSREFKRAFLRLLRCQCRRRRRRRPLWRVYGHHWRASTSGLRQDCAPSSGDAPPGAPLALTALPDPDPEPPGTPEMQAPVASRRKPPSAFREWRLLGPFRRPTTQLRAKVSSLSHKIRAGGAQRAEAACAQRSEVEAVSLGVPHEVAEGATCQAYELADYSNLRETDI
# T36 sequence (Q96RJ0 whole entry): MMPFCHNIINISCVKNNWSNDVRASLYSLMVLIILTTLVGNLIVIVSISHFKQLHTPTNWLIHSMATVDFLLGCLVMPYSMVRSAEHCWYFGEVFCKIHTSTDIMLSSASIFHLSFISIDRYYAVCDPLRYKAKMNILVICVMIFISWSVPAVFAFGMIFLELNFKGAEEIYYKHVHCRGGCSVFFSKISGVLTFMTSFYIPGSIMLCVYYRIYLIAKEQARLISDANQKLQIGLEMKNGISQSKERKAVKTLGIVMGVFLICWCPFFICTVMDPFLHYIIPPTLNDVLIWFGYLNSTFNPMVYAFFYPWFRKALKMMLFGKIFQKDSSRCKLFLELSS
# T34 sequence (Q9NSD7 whole entry): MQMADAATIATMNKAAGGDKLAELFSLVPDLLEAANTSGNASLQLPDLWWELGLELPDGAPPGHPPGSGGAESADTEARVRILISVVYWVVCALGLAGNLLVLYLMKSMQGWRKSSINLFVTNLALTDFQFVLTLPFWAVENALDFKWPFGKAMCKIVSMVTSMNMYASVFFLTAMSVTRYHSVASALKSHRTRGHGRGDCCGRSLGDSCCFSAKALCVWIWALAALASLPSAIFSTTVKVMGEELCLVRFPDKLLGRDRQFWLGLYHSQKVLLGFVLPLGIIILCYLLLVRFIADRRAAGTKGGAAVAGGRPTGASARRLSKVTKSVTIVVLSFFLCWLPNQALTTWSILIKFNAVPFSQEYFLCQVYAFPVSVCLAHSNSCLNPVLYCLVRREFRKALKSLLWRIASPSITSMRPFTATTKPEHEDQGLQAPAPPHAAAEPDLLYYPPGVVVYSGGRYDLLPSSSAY
# T5 sequence (O14843 whole entry): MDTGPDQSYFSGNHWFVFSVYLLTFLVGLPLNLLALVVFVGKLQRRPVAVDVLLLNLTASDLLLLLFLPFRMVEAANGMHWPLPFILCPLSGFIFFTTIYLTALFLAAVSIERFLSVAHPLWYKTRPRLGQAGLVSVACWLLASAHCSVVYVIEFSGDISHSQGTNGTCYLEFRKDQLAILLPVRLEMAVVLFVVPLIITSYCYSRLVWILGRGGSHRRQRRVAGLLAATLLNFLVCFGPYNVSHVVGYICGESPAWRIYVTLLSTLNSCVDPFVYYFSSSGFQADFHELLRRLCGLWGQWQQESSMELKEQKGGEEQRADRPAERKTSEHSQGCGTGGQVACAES
# T28 sequence (P48146 whole entry): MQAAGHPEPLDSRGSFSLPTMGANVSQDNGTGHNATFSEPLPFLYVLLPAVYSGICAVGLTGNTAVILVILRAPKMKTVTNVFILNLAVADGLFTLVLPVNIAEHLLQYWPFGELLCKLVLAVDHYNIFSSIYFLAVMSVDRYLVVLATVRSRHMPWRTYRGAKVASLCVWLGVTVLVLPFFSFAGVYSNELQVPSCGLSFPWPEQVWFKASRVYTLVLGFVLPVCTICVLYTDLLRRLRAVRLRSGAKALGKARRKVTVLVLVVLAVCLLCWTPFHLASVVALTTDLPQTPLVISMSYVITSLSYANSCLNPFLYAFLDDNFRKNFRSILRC
# T24 sequence (P28335 33-458): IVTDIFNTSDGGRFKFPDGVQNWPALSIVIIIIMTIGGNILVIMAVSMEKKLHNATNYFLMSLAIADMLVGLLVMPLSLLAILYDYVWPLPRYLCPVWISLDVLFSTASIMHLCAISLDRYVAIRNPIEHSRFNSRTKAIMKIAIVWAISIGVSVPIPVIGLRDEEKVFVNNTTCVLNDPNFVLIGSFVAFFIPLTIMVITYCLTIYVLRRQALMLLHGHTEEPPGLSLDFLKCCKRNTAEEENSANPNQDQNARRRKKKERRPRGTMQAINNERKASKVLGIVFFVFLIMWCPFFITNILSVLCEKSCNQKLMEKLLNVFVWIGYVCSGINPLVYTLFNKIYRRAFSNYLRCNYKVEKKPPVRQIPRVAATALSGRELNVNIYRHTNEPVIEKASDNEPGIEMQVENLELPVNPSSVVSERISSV
# T32 sequence (P43115 whole entry): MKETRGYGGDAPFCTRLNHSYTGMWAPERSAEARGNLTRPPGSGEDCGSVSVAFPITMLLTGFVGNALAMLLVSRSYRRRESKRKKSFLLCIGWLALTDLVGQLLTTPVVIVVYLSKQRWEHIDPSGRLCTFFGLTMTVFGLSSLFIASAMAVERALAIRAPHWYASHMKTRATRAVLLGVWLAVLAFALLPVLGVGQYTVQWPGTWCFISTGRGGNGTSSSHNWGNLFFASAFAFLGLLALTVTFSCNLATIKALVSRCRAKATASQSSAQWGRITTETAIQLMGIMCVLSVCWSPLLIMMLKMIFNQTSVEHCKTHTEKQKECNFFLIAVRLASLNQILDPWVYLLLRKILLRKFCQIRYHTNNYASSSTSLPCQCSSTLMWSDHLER
# T25 sequence (P34969 whole entry): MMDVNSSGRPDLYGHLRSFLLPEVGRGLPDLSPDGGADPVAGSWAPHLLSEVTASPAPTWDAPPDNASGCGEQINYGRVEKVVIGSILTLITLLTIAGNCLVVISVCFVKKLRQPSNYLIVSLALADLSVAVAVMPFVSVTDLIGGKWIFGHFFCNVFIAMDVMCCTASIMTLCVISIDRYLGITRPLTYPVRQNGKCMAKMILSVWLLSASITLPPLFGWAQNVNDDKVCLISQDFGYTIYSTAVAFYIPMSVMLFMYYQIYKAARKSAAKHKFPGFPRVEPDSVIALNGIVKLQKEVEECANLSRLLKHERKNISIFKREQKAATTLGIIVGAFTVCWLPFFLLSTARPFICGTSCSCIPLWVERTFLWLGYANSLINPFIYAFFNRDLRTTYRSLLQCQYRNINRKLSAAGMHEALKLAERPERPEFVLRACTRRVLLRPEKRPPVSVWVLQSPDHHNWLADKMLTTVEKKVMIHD
# T16 sequence (O75388 whole entry): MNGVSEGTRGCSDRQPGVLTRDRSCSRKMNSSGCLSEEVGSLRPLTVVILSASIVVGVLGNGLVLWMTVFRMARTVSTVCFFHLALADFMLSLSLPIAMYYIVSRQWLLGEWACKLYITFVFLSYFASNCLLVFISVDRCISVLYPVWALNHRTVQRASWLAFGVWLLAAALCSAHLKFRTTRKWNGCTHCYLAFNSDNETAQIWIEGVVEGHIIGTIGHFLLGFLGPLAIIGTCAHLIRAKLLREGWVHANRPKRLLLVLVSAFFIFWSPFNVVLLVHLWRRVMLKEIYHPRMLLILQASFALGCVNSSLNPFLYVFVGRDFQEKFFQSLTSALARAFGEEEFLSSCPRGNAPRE
# T12 sequence (P47775 whole entry): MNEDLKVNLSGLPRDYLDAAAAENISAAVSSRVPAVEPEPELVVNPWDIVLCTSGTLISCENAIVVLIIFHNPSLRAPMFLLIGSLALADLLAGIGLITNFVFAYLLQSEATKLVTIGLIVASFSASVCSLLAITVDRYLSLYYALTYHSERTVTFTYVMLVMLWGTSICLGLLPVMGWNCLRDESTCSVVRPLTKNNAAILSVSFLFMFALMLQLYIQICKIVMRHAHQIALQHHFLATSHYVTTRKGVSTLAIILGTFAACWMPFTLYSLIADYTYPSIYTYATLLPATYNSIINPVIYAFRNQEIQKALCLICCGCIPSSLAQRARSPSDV
# T1 sequence (P0DMS8 whole entry): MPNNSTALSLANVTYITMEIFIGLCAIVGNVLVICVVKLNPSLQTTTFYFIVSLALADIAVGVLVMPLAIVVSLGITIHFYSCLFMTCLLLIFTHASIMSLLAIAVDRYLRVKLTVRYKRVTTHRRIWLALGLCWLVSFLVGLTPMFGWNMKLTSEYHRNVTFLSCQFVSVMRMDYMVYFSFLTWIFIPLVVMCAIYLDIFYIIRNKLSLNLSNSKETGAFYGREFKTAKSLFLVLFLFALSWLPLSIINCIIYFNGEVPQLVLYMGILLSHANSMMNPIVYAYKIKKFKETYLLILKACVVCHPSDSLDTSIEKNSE
Compound,GPCR activation (heatmap value) (ADORA3),GPCR activation (heatmap value) (ADRA1D),GPCR activation (heatmap value) (AVPR1A),GPCR activation (heatmap value) (CCR5),GPCR activation (heatmap value) (FFA3),GPCR activation (heatmap value) (GAL2),GPCR activation (heatmap value) (GAL3),GPCR activation (heatmap value) (GCGR),GPCR activation (heatmap value) (GPR1),GPCR activation (heatmap value) (GPR101),GPCR activation (heatmap value) (GPR116),GPCR activation (heatmap value) (GPR12),GPCR activation (heatmap value) (GPR149),GPCR activation (heatmap value) (GPR20),GPCR activation (heatmap value) (GPR25),GPCR activation (heatmap value) (GPR32),GPCR activation (heatmap value) (GPR39),GPCR activation (heatmap value) (GPR56),GPCR activation (heatmap value) (GPRC5C),GPCR activation (heatmap value) (GRM6),further results
CC(C)Cc1ncc(CCCCNC(=N)N)[nH]c1=O [3-Homo],-0.404,0.4606,0.8531,0.4723,-0.4191,0.5878,0.4523,0.3222,0.03802,-0.2435,-0.4317,0.07278,0.01685,0.638,-0.6766,-0.1389,0.5643,-0.2489,0.07279,-0.3175,GPCR activation (heatmap value) (HTR1A): -0.3927; GPCR activation (heatmap value) (HTR1B): -0.02426; GPCR activation (heatmap value) (HTR1D): -0.01602; GPCR activation (heatmap value) (HTR2C): 0.3471; GPCR activation (heatmap value) (HTR7): 0.09912; GPCR activation (heatmap value) (MRGPRX1): 0.1239; GPCR activation (heatmap value) (MRGPRX4): 0.4562; GPCR activation (heatmap value) (NPBW2): -0.3796; GPCR activation (heatmap value) (OXTR): 0.4883; GPCR activation (heatmap value) (P2RY11): 0.1373; GPCR activation (heatmap value) (PK2): -0.9094; GPCR activation (heatmap value) (PTGER3): -1.204; GPCR activation (heatmap value) (PTH2R): -0.1142; GPCR activation (heatmap value) (RXFP3): 0.07695; GPCR activation (heatmap value) (S1PR1): -0.03733; GPCR activation (heatmap value) (TA1): 0.4199
CC(C)Cc1ncc(CCCNC(=N)N)[nH]c1=O [compound 3],-0.3342,-0.2106,0.9724,-0.6917,-0.2613,0.1995,0.02852,0.3476,-0.7172,0.4147,-0.4037,0.5588,0.9394,1.634,-0.8885,0.07937,0.8238,-0.03075,0.188,0.6597,GPCR activation (heatmap value) (HTR1A): -0.02258; GPCR activation (heatmap value) (HTR1B): 0.5899; GPCR activation (heatmap value) (HTR1D): 0.2043; GPCR activation (heatmap value) (HTR2C): 0.7228; GPCR activation (heatmap value) (HTR7): -0.07329; GPCR activation (heatmap value) (MRGPRX1): -1.215; GPCR activation (heatmap value) (MRGPRX4): 0.07015; GPCR activation (heatmap value) (NPBW2): -0.2074; GPCR activation (heatmap value) (OXTR): 0.1075; GPCR activation (heatmap value) (P2RY11): -0.4085; GPCR activation (heatmap value) (PK2): -0.4477; GPCR activation (heatmap value) (PTGER3): 0.03461; GPCR activation (heatmap value) (PTH2R): -0.2039; GPCR activation (heatmap value) (RXFP3): -0.5079; GPCR activation (heatmap value) (S1PR1): -0.122; GPCR activation (heatmap value) (TA1): -0.5267
